According to US5110808A, “Amide derivatives, compositions and use” (Imperial Chemical Industries, PLC, priority 1990, dated 1992):
pIC50: −log10 of the molar value.

Tests used:
[1] = target: T1, aldose reductase (Bos taurus, UniProt P16116); assay: In vitro inhibition of partially purified aldose reductase from bovine lenses, spectrophotometric; assay type: biochemical
T1 construct: partially purified aldose reductase is isolated in known manner from bovine lenses; from tissue; host or cells: bovine lens
Excerpt: Thus, in a standard procedure partially purified aldose reductase is isolated in known manner from bovine lenses. The percentage inhibition of this enzyme's ability in vitro to catalyse the reduction of aldoses to polyhydric alcohols, and particularly to reduce glucose to sorbitol, caused by a test compound can then be determined using standard spectrophotometric methods.

[2] = tested on: aldose reductase; assay: Reduction of sciatic nerve sorbitol in streptozotocin-diabetic rats (inhibition of aldose reductase in vivo); design: species or system rat; settings: after 5 daily oral doses of 3 mg/kg
Experimental: Rats are made diabetic (as evidenced by severe glucosuria being present) by dosing with streptozotocin. The animals are then dosed daily with the test compound for one, two or five days. The animals are then sacrificed 2-6 hours after the final dose and the eye lenses and/or sciatic nerves are removed. After a standard work-up procedure the residual sorbitol levels in each tissue are determined by gas liquid chromatography after conversion to the polytrimethylsilyl derivatives. Inhibition of aldose reductase in vivo can then be assessed by comparing the residual sorbitol levels in tissues from the dosed diabetic group of rats with those of an undosed group of diabetic rats and an undosed, normal group of rats.
In a variation of the above test diabetic rats are dosed at a fixed daily oral dose for five days and then sacrificed 6 hours aftre the final dose and the reduction of sciatic nerve sorbitol assessed relative to that in control animals.

pIC50 [1]: ~7.22
Structure (SMILES): Cc1cc(NC(=O)C(=O)N(C(C)C)C(C)C)cc(C)c1S(=O)(=O)C[N+](=O)[O-] [Example 2, N,N-di-isopropyl-N'-[3,5-dimethyl-4-(nitromethylsulfonyl)phenyl]oxamide]
reduction in sciatic nerve sorbitol levels [2]: 82%
